These results are taken from patent publication US5296591A, “Trifluoromethylketone derivatives, processes for preparation thereof and use thereof” (Fujisawa Pharmaceutical Co., Ltd., priority 1990, dated 1994).

Like-named read-outs stand apart in the source and are kept apart here.

Assay [1] addresses T1, porcine pancreas elastase (Type IV) (Sus scrofa, UniProt P00772).
T1 construct: purchased Sigma Chemicals Co; host or cells: porcine pancreas (from the enzyme's name)
The assay can be described thus: Protease inhibition assay (in vitro), porcine pancreas elastase. It is filed as biochemical. Conditions: substrate N-succinyl-(Ala)3-p-nitroanilide, enzyme 5 μg/ml final. Here is the method:
(§1) A buffer used throughout the assay was 0.1M HEPES (4-(2-hydroxyethyl)-1-piperazineethanesulfonic acid) containing 0.5M NaCl, pH 7.5. Twenty-five microliters of 2 mM methoxysuccinyl-(Ala)2 -Pro-Val-p-nitroanilide (100 mM of dimethyl sulfoxide solution were diluted in the buffer) and 50 μl of sample (10 μl of sample in organic solvent was diluted 5-fold in the buffer) were mixed in wells of 96 well-microliter plate. An absorbance of the mixture in wavelength at 415 nm was measured by a microplate reader (Corona Electric Co., Ibaraki, Japan). After the measurement, 25 μl of 6 μg/ml human sputum elastase (HSE) was added and the mixture was allowed to stand for 30 minutes at room temperature. Then, the absorbance at 415 nm was measured. Percent inhibition by drug was determined by 100×(1-"r" inhibitor present/"r" inhibitor absent), where "r" is absorbance after 30 minutes incubation minus absorbance before enzyme addition. Effect of inhibitors against porcine pancreas elastase (Type IV, 5 μg/ml final) was assayed similarly using N-succinyl-(Ala)3 -p-nitroanilide. HSE was obtained from Elastin Products Company Inc., Mo., U.S.A. All other substrates and protease were purchased from Sigma Chemicals Co.

Assay [2] relates to human sputum elastase-induced lung hemorrhage in hamsters. Description: Elastase-induced pulmonary damage (lung hemorrhage) in hamsters. It is filed as in vivo, hamster. Conditions: 5 min predose; for Hemorrhage (OD541 nm): BAL hemoglobin 3 h after elastase. Here is the method: Hamsters under pentobarbital anesthesia were used. Saline or saline-containing human sputum elastase was instilled intratracheally via a small incision in the ventral neck region using 1-ml syringe with a 27-gauge needle. After 3 hours, animals were sacrificed by CO2 asphyxiation, each animal's trachea was reexposed. The lungs were then laveged using a 2.5-ml aliquot of saline and then withdrawing the saline, yielding a final volume of approximately 1.5 ml bronchoalveolar lavage (BAC) fluid from each animal.
The cells of BAL fluid were collected by centrifugation and were then diluted with distilled water to disrupt, and the hemoglobin contents determined spectrophotometrically at 541 nm.
Test drugs were dissolved in saline or methyl cellulose, and instilled intratracheally in the same manner as used to instill elastase, at 5 minutes before instillation of elastase.

Assay [3] concerns the target T2, human sputum elastase (HSE) (Homo sapiens, UniProt P08246).
T2 construct: HSE was obtained from Elastin Products Company Inc., Mo., U.S.A; purchased Elastin Products Company Inc; host or cells: human sputum (from the enzyme's name)
T2 sequence (P08246 30-267): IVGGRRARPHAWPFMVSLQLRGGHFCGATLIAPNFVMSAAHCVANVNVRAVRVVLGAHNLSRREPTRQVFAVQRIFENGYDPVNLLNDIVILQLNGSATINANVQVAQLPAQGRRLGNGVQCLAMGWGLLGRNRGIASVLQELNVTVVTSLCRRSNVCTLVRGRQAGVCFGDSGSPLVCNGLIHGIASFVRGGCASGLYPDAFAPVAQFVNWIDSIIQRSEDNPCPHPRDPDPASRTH
The assay can be described thus: Protease inhibition assay (in vitro), human sputum elastase. It is filed as biochemical. The note with it: substrate methoxysuccinyl-(Ala)2-Pro-Val-p-nitroanilide, 30 min, room temperature, pH 7.5. Here is the method: as §1

[4] abbreviates: read-out: IC50 Porcine pancreas elastase.

T1 sequence (P00772 27-266): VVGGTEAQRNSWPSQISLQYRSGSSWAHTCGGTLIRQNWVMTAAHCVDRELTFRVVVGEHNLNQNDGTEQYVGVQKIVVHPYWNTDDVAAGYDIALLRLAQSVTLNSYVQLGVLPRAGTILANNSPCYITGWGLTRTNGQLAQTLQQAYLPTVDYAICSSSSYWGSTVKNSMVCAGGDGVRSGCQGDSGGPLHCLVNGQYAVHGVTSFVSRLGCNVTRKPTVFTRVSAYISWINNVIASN

By IC50 is commonly meant the concentration that gives 50% inhibition. As to “3(RS)-[[4-(Carboxymethylaminocarbonyl)phenylaminocarbonyl]-L-valyl-L-prolyl] amino-1,1,1-trifluoro-2-oxo-4-methylpentane [Example 23]”, the concentration for half-maximal inhibition (IC50) was 2400 nM in assay [1] (setting [4]) and 810 nM in assay [3]. For the same compound, the “% inhibition of elastase-induced lung hemorrhage” value in assay [2] (1 μg/site intratracheal) is reported as 16.0%; in assay [2] (10 μg/site intratracheal) it was 75.6%; in assay [2] (100 μg/site intratracheal), 102.1%. Further, the “Hemorrhage (OD541 nm)” value in assay [2] (1 μg/site intratracheal) is on record as 9.435 ± 0.941 OD541 nm; in assay [2] (10 μg/site intratracheal), 3.412 ± 1.31 OD541 nm; in assay [2] (100 μg/site intratracheal) it was 0.7258 ± 0.303 OD541 nm. Further, the “ED50 elastase-induced lung hemorrhage” value in assay [2] (intratracheal) was 3.2 μg/site.

As for `CC(C)C(NC(=O)[C@@H]1CCCN1C(=O)[C@@H](NC(=O)c1ccc(C(=O)NCC(=O)OCc2ccccc2)cc1)C(C)C)C(=O)C(F)(F)F` (mixture of isomers) [Example 1, 3(RS)-[[4-[(benzyloxycarbonyl)methylaminocarbonyl]-phenylcarbonyl]-L-valyl-L-prolyl]amino-1,1,1-trifluoro-4-methyl-2-oxopentane], the IC50 is 4400 nM in assay [1] (setting [4]) and 450 nM in assay [3].

In the case of `CC(C)C(NC(=O)[C@@H]1CCCN1C(=O)[C@@H](NC(=O)c1ccc(C(=O)NCc2ccc(Cl)cc2)cc1)C(C)C)C(=O)C(F)(F)F` (mixture of isomers) [Example 5, 3(RS)-[[4-[(4-Chlorobenzyl)aminocarbonyl]-phenylcarbonyl]-L-valyl-L-prolyl]amino-1,1,1-trifluoro-4-methyl-2-oxopentane], the results for the concentration for half-maximal inhibition (IC50) in assay [1] (setting [4]) and in assay [3] were 5100 nM and 300 nM, respectively.

Take `CC(C)C(NC(=O)[C@@H]1CCCN1C(=O)[C@@H](NC(=O)c1ccc(C(=O)NCc2ccc([N+](=O)[O-])cc2)cc1)C(C)C)C(=O)C(F)(F)F` (mixture of isomers) [Example 6, 3(RS)-[[4-[(4-Nitrobenzyl)aminocarbonyl]phenylcarbonyl]-L-valyl-L-prolyl]amino-1,1,1-trifluoro-4-methyl-2-oxopentane]: the IC50 in assay [1] (setting [4]) came to 6900 nM; in assay [3] it was 430 nM.

Regarding `CC(C)C(NC(=O)[C@@H]1CCCN1C(=O)[C@@H](NC(=O)c1ccc(C(=O)Nc2ccc(Cl)cc2)cc1)C(C)C)C(=O)C(F)(F)F` (mixture of isomers) [Example 7, 3(RS)-[[4-[(4-Chlorophenyl)aminocarbonyl]phenylcarbonyl]-L-valyl-L-prolyl]amino-1,1,1-trifluoro-4-methyl-2-oxopentane], the results for the IC50 in assay [1] (setting [4]) and in assay [3] were 3800 nM and 320 nM, respectively.

On to `CC(C)C(NC(=O)[C@@H]1CCCN1C(=O)[C@@H](NC(=O)c1ccc(C(=O)N[C@@H](CCC(=O)OCc2ccccc2)C(=O)OCc2ccccc2)cc1)C(C)C)C(=O)C(F)(F)F` (mixture of isomers) [Example 10, 3(RS)-[[4-[[1(S),3-bis(Benzyloxycarbonyl)propyl]aminocarbonyl]phenylcarbonyl]-L-valyl-L-prolyl]amino-1,1,1-trifluoro-4-methyl-2-oxopentane], for which the concentration for half-maximal inhibition (IC50) in assay [1] (setting [4]) amounted to 310000 nM; in assay [3], 8000 nM.

Consider `CC(C)C(NC(=O)[C@@H]1CCCN1C(=O)[C@@H](NC(=O)c1ccc(C(=O)N[C@@H](CCC(=O)O)C(=O)O)cc1)C(C)C)C(=O)C(F)(F)F` (mixture of isomers) [Example 17, 3(RS)-[[4-[(1(S),3-Dicarboxypropyl)aminocarbonyl]-phenylcarbonyl]-L-valyl-L-prolyl]amino-1,1,1-trifluoro-4-methyl-2-oxopentane], for which the IC50 in assay [1] (setting [4]) was 3400 nM; in assay [3], 1100 nM.

With `CC(C)C(NC(=O)[C@@H]1CCCN1C(=O)[C@@H](NC(=O)c1ccc(C(=O)NCc2ccc(N)cc2)cc1)C(C)C)C(=O)C(F)(F)F` (mixture of isomers) [Example 18, 3(RS)-[[4-[(4-aminobenzyl)aminocarbonyl]phenylcarbonyl]-L-valyl-L-prolyl]amino-1,1,1-trifluoro-4-methyl-2-oxopentane], the half-maximal inhibitory concentration (IC50) in assay [1] (setting [4]) is 3800 nM; in assay [3], 610 nM.

As for `CC(C)C(NC(=O)[C@@H]1CCCN1C(=O)[C@@H](NC(=O)Nc1ccc(C(=O)NCC(=O)OCc2ccccc2)cc1)C(C)C)C(=O)C(F)(F)F` (mixture of isomers) [Example 22, 3(RS)-[[4-(Benzyloxycarbonylmethylaminocarbonyl)phenylaminocarbonyl]-L-valyl-L-prolyl]amino-1,1,1-trifluoro-2-oxo-4-methylpentane], the IC50 came to 4900 nM in assay [1] (setting [4]) and 680 nM in assay [3].

For the compound `CC(C)C(NC(=O)[C@@H]1CCCN1C(=O)[C@@H](NC(=O)Nc1ccc(C(=O)NCC(=O)N(C)C)cc1)C(C)C)C(=O)C(F)(F)F` (mixture of isomers) [Example 24, 3(RS)-[[4-(Dimethylaminocarbonylmethylaminocarbonyl)phenylaminocarbonyl]-L-valyl-L-prolyl]amino-1,1,1-trifluoro-2-oxo-4-methylpentane], the 50% inhibitory concentration (IC50) in assay [1] (setting [4]) was 3800 nM; in assay [3], 1400 nM.

Consider `CC(C)C(NC(=O)[C@@H]1CCCN1C(=O)[C@@H](NC(=O)c1ccc(C(=O)NCCCC(=O)OCC(=O)c2ccccc2)cc1)C(C)C)C(=O)C(F)(F)F` (mixture of isomers) [Example 3, 3(RS)-[[4-[(3-Benzoylmethoxycarbonyl)propylaminocarbonyl]phenylcarbonyl]-L-valyl-L-prolyl]amino-1,1,1-trifluoro-4-methyl-2-oxopentane], for which the IC50 was determined as 8700 nM in assay [1] (setting [4]) and 980 nM in assay [3].

On to `CC(C)C(NC(=O)[C@@H]1CCCN1C(=O)[C@@H](NC(=O)c1ccc(C(=O)NN2CCOCC2)cc1)C(C)C)C(=O)C(F)(F)F` (mixture of isomers) [Example 4, 3(RS)-[[4-[(4-Morpholino)aminocarbonyl]-phenylcarbonyl]-L-valyl-L-prolyl]amino-1,1,1-trifluoro-4-methyl-2-oxopentane], for which the IC50 in assay [1] (setting [4]) is 2900 nM; in assay [3] it was 1400 nM.

For `CC(C)C(NC(=O)[C@@H]1CCCN1C(=O)[C@@H](NC(=O)c1ccc(C(=O)N[C@H](Cc2ccccc2)C(=O)OCc2ccccc2)cc1)C(C)C)C(=O)C(F)(F)F` (mixture of isomers) [Example 8, 3(RS)-[[4-[[(1(R)-Benzyloxycarbonyl)-2-phenyl]ethylaminocarbonyl]phenylcarbonyl]-L-valyl-L-prolyl]amino-1,1,1-trifluro-4-methyl-2-oxopentane], the results for the IC50 in assay [1] (setting [4]) and in assay [3] were 16000 nM and 870 nM, respectively.

Consider `CC(C)C(NC(=O)[C@@H]1CCCN1C(=O)[C@@H](NC(=O)c1ccc(C(=O)N[C@@H](Cc2ccccc2)C(=O)OCc2ccccc2)cc1)C(C)C)C(=O)C(F)(F)F` (mixture of isomers) [Example 9, 3(RS)-[[4-[[(1(S)-Benzyloxycarbonyl)-2-phenyl]ethylaminocarbonyl]phenylcarbonyl]-L-valyl-L-prolyl]amino-1,1,1-trifluoro-4-methyl-2-oxopentane], for which the values for the IC50 in assay [1] (setting [4]) and in assay [3] were 9500 nM and 870 nM, respectively.

Take `CC(C)C(NC(=O)[C@@H]1CCCN1C(=O)[C@@H](NC(=O)c1ccc(C(=O)NCC(=O)O)cc1)C(C)C)C(=O)C(F)(F)F` (single isomer, unassigned) [Example 15, 3(R or S)-[[4-(Carboxymethylaminocarbonyl)phenylcarbonyl]-L-valyl-L-prolyl]amino-1,1,1-trifluoro-2-oxo-4-methylpentane]: the results for the IC50 in assay [1] (IC50 Porcine pancreas elastase) and in assay [3] were 2000 nM and 610 nM, respectively.

Regarding `CC(C)C(NC(=O)[C@@H]1CCCN1C(=O)[C@@H](NC(=O)c1ccc(C(=O)NCC(=O)O)cc1)C(C)C)C(=O)C(F)(F)F` (single isomer, unassigned) [Example 16, 3(R or S)-[[4-(Carboxymethylaminocarbonyl)phenylcarbonyl]-L-valyl-L-prolyl]amino-1,1,1-trifluoro-2-oxo-4-methylpentane], the IC50 was 30000 nM in assay [1] (IC50 Porcine pancreas elastase) and 7100 nM in assay [3].
